Measured values taken from ChEMBL document CHEMBL4507295 (2021).

Assays:
[1] = system: Mast/stem cell growth factor receptor Kit (Homo sapiens), P10721 [A829P]; settings: Compound concentration 1000.0 nM
[2] = target: TGF-beta receptor type-2 (Homo sapiens) (UniProt P37173); settings: Compound concentration 1000.0 nM
[3] = target: Insulin-like growth factor 1 receptor (Homo sapiens) (UniProt P08069); settings: Compound concentration 1000.0 nM
[4] = target: Serine/threonine-protein kinase Sgk2 (Homo sapiens) (UniProt Q9HBY8); settings: Compound concentration 1000.0 nM
[5] = target: Mitogen-activated protein kinase kinase kinase kinase 2 (Homo sapiens) (UniProt Q12851); settings: Compound concentration 1000.0 nM
[6] = target: Sigma intracellular receptor 2 (Homo sapiens) (UniProt Q5BJF2); settings: Compound concentration 10.0 uM
[7] = target: Serine/threonine-protein kinase PAK 5 (Homo sapiens) (UniProt Q9P286); settings: Compound concentration 1000.0 nM
[8] = target: Sigma non-opioid intracellular receptor 1 (Homo sapiens) (UniProt Q99720); settings: Compound concentration 10.0 uM
[9] = target: Serine/threonine-protein kinase PLK3 (Homo sapiens) (UniProt Q9H4B4); settings: Compound concentration 1000.0 nM
[10] = target: Mitogen-activated protein kinase 4 (Homo sapiens) (UniProt P31152); settings: Compound concentration 1000.0 nM
[11] = target: Receptor-interacting serine/threonine-protein kinase 4 (Homo sapiens) (UniProt P57078); settings: Compound concentration 1000.0 nM
[12] = target: Cyclin-dependent kinase 2 homolog (Plasmodium falciparum (isolate 3D7)) (UniProt P61075); settings: Compound concentration 1000.0 nM
[13] = target: Tyrosine-protein kinase FRK (Homo sapiens) (UniProt P42685); settings: Compound concentration 1000.0 nM
[14] = target: Mitotic checkpoint serine/threonine-protein kinase BUB1 (Homo sapiens) (UniProt O43683); settings: Compound concentration 1000.0 nM
[15] = target: Rho-associated protein kinase 2 (Homo sapiens) (UniProt O75116); settings: Compound concentration 1000.0 nM
[16] = target: Mitogen-activated protein kinase 9 (Homo sapiens) (UniProt P45984); settings: Compound concentration 1000.0 nM
[17] = target: Hepatocyte growth factor receptor (Homo sapiens) (UniProt P08581); settings: Compound concentration 1000.0 nM
[18] = target: GABA-A receptor; anion channel (Rattus norvegicus) (UniProt O09028+P15431+P18506+P18508+P19969+P20236+P23574+P23576+P28471+P28473+P30191+P62813+P63079+P63138+Q91ZM7+Q9ES14); settings: Compound concentration 10.0 uM
[19] = system: Tyrosine-protein kinase ABL1 (Homo sapiens), P00519 [F317I]; settings: Compound concentration 1000.0 nM
[20] = target: Serine/threonine-protein kinase STK11 (Homo sapiens) (UniProt Q15831); settings: Compound concentration 1000.0 nM
[21] = target: Tyrosine-protein kinase ABL1 (Homo sapiens) (UniProt P00519); settings: Compound concentration 1000.0 nM
[22] = target: Serine/threonine-protein kinase ICK (Homo sapiens) (UniProt Q9UPZ9); settings: Compound concentration 1000.0 nM
[23] = target: Calcium/calmodulin-dependent protein kinase kinase 2 (Homo sapiens) (UniProt Q96RR4); settings: Compound concentration 1000.0 nM
[24] = target: Cyclin-dependent kinase 17 (Homo sapiens) (UniProt Q00537); settings: Compound concentration 1000.0 nM
[25] = target: Serine/threonine-protein kinase D1 (Homo sapiens) (UniProt Q15139); settings: Compound concentration 1000.0 nM
[26] = target: Tyrosine-protein kinase Fer (Homo sapiens) (UniProt P16591); settings: Compound concentration 1000.0 nM
[27] = target: Serine/threonine-protein kinase Nek9 (Homo sapiens) (UniProt Q8TD19); settings: Compound concentration 1000.0 nM
[28] = target: Tyrosine-protein kinase JAK1 (Homo sapiens) (UniProt P23458); settings: Compound concentration 1000.0 nM
[29] = target: Activin receptor type-1B (Homo sapiens) (UniProt P36896); settings: Compound concentration 1000.0 nM
[30] = target: Protein kinase C epsilon type (Homo sapiens) (UniProt Q02156); settings: Compound concentration 1000.0 nM
[31] = target: T1, 5-hydroxytryptamine receptor 2C (Homo sapiens) (UniProt P28335); settings: Compound concentration 10.0 uM
T1 sequence (whole entry): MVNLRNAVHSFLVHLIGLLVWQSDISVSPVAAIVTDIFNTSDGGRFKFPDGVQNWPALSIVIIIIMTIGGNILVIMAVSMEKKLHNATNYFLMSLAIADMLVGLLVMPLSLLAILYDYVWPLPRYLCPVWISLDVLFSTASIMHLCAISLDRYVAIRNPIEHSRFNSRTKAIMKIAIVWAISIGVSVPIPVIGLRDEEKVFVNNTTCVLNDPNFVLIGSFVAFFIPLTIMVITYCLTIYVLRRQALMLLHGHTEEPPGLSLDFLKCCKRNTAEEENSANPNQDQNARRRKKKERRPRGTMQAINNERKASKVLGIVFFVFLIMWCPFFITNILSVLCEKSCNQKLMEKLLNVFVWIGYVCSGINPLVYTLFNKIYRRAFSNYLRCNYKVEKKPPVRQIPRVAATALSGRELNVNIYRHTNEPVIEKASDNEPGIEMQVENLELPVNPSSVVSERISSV

[32] = target: NT-3 growth factor receptor (Homo sapiens) (UniProt Q16288); settings: Compound concentration 1000.0 nM
[33] = target: Rhodopsin kinase GRK1 (Homo sapiens) (UniProt Q15835); settings: Compound concentration 1000.0 nM
[34] = target: Dual specificity mitogen-activated protein kinase kinase 6 (Homo sapiens) (UniProt P52564); settings: Compound concentration 1000.0 nM
[35] = target: Beta-2 adrenergic receptor (Homo sapiens) (UniProt P07550); settings: Compound concentration 10.0 uM
[36] = target: Casein kinase I isoform gamma-3 (Homo sapiens) (UniProt Q9Y6M4); settings: Compound concentration 1000.0 nM
[37] = target: Mitogen-activated protein kinase kinase kinase 6 (Homo sapiens) (UniProt O95382); settings: Compound concentration 1000.0 nM
[38] = target: Mitogen-activated protein kinase kinase kinase kinase 3 (Homo sapiens) (UniProt Q8IVH8); settings: Compound concentration 1000.0 nM

Sequence of Serine/threonine-protein kinase ICK (Homo sapiens) (Q9UPZ9 whole entry): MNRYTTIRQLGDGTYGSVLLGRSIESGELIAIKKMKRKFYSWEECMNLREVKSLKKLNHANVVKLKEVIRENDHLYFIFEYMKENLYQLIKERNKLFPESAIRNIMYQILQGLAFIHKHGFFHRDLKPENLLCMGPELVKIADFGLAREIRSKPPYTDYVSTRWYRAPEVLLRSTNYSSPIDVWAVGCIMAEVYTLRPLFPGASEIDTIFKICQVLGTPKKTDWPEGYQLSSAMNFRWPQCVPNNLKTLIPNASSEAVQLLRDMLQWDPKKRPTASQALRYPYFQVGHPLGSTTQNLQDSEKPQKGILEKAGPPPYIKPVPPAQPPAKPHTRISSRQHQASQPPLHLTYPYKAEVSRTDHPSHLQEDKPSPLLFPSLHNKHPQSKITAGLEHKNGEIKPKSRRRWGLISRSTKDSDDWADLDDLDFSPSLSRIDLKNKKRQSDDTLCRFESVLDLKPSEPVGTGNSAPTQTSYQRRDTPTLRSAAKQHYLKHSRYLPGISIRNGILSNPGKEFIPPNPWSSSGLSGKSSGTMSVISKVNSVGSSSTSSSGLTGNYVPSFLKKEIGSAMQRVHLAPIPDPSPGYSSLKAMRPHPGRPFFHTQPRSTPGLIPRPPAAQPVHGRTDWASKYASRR
Sequence of Sigma intracellular receptor 2 (Homo sapiens) (Q5BJF2 whole entry): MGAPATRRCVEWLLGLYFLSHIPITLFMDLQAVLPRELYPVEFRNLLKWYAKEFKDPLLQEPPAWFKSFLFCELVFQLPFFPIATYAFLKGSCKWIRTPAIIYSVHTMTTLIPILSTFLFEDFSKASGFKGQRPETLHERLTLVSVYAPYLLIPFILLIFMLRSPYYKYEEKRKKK
Sequence of Serine/threonine-protein kinase Sgk2 (Homo sapiens) (Q9HBY8 whole entry): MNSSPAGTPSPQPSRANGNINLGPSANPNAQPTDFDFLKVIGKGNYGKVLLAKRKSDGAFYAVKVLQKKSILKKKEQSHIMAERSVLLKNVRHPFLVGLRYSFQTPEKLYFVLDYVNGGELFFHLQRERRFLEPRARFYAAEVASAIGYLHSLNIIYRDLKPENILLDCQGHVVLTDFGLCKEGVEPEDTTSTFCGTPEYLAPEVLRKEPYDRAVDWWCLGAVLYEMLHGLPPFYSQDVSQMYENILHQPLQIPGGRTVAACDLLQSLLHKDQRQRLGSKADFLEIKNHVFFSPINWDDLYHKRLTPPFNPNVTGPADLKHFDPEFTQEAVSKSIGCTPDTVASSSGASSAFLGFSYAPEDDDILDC
Sequence of Serine/threonine-protein kinase Nek9 (Homo sapiens) (Q8TD19 whole entry): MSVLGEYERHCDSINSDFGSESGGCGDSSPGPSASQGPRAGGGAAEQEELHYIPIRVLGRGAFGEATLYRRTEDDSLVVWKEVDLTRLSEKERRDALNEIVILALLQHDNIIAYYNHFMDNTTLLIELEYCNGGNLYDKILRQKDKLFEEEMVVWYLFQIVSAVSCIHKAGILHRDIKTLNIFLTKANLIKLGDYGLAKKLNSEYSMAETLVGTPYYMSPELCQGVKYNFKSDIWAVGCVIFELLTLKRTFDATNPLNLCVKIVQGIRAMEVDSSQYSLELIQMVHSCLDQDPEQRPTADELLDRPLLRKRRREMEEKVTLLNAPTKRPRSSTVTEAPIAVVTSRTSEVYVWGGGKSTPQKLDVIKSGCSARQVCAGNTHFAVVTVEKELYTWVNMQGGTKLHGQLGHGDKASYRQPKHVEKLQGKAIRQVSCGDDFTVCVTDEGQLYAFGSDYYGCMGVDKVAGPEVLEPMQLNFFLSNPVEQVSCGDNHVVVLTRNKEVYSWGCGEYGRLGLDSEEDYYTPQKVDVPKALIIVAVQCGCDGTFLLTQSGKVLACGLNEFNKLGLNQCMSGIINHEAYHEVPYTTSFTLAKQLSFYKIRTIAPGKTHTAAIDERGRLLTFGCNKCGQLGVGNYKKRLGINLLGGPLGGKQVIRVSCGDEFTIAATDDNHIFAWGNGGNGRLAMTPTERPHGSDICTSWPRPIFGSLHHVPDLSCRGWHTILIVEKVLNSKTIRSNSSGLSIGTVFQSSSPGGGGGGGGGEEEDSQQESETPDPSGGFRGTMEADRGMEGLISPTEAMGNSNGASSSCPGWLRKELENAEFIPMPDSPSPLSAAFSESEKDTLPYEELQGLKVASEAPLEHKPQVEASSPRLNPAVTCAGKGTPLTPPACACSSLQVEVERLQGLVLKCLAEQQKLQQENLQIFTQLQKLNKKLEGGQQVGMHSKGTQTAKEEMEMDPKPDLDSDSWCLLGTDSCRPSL
Sequence of Dual specificity mitogen-activated protein kinase kinase 6 (Homo sapiens) (P52564 whole entry): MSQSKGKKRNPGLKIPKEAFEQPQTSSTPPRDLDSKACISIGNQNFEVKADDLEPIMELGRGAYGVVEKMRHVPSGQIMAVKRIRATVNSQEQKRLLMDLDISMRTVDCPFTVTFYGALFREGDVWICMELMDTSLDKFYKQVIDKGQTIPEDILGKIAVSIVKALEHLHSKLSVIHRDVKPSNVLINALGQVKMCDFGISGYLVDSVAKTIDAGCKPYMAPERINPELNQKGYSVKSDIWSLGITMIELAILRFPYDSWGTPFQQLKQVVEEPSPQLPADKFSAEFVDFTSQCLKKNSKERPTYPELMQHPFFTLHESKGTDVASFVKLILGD
Sequence of Mitogen-activated protein kinase kinase kinase kinase 2 (Homo sapiens) (Q12851 whole entry): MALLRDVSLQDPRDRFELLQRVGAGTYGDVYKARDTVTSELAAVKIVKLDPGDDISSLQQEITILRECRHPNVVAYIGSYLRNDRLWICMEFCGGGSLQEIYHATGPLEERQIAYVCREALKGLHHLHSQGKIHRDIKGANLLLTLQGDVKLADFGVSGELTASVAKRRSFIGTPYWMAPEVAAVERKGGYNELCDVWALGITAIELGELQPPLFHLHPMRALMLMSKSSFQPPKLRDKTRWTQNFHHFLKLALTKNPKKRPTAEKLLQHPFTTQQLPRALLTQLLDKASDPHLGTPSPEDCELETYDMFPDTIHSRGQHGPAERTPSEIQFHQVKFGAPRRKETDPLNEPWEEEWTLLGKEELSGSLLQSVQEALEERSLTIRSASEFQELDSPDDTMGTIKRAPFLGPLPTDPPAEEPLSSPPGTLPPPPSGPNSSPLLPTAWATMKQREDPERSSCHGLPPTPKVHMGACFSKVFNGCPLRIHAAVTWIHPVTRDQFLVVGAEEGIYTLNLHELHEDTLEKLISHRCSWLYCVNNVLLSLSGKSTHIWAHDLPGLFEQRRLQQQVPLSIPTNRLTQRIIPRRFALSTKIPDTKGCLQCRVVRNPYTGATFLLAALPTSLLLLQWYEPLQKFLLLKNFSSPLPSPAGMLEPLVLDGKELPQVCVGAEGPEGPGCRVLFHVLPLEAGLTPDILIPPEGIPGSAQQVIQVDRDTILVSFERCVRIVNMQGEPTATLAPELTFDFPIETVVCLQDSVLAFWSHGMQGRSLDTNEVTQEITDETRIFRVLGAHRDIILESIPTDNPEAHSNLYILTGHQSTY
Sequence of Beta-2 adrenergic receptor (Homo sapiens) (P07550 whole entry, looked up, canonical isoform): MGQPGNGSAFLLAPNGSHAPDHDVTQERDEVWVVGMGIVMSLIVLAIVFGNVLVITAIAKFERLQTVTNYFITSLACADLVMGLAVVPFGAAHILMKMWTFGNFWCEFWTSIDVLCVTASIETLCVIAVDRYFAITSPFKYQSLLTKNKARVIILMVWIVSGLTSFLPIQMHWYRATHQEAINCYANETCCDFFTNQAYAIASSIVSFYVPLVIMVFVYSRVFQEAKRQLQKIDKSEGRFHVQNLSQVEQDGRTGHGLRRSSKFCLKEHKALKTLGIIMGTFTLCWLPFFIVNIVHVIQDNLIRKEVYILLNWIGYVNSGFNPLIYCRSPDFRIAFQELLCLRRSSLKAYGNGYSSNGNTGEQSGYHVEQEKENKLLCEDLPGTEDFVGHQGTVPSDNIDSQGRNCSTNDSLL
Sequence of Mitotic checkpoint serine/threonine-protein kinase BUB1 (Homo sapiens) (O43683 whole entry, looked up): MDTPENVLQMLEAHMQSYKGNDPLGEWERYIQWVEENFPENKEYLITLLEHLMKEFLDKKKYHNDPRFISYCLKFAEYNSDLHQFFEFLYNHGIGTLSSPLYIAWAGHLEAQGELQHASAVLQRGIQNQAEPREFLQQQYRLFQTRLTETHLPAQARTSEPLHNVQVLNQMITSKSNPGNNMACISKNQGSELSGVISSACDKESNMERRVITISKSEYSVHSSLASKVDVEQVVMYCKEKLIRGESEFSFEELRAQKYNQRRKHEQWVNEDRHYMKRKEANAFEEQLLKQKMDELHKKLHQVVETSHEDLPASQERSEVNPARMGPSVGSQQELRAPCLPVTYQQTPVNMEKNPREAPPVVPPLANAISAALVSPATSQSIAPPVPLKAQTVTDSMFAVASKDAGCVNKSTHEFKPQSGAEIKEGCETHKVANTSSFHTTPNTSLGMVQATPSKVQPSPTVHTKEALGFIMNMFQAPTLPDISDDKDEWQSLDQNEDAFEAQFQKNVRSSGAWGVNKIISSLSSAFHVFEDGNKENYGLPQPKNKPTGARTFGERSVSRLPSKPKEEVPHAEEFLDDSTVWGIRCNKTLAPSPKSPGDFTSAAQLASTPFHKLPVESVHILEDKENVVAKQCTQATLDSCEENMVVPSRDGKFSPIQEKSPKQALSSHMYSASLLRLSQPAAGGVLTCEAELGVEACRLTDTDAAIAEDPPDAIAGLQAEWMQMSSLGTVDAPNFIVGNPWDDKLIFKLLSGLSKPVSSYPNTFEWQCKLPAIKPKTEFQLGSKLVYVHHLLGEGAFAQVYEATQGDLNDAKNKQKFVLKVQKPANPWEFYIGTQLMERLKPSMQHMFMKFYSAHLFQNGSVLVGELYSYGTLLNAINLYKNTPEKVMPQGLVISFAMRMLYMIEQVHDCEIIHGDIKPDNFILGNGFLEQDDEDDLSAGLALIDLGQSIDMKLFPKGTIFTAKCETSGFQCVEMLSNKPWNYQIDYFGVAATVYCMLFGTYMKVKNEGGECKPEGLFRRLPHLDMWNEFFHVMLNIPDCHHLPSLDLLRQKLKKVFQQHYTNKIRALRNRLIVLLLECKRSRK

N#CC1(c2ccccn2)CCN(Cc2cc(C(=O)O)c(=O)n3ccccc23)CC1 [MSD-M1PAM]
inactive: residual activity [1] 84% | residual activity [2] 93% | residual activity [3] 89% | residual activity [4] 86% | residual activity [5] 81% | inhibition [6] 5.17% | residual activity [7] 96% | inhibition [8] 29.1% | residual activity [9] 85% | residual activity [10] 100% | residual activity [11] 80% | residual activity [12] 68% | residual activity [13] 100% | residual activity [14] 100% | residual activity [15] 85% | residual activity [16] 83% | residual activity [17] 84% | inhibition [18] 20.2% | residual activity [19] 81% | residual activity [20] 100% | residual activity [21] 98% | residual activity [22] 75% | residual activity [23] 100% | residual activity [24] 96% | residual activity [25] 87% | residual activity [26] 100% | residual activity [27] 100% | residual activity [28] 100% | residual activity [29] 94% | residual activity [30] 100% | inhibition [31] 10.5% | residual activity [32] 70% | residual activity [33] 84% | residual activity [34] 99% | inhibition [35] 13.9% | residual activity [36] 93% | residual activity [37] 100% | residual activity [38] 80%

N#CC1(c2ccccn2)CCN(Cc2cc(C(=O)N3CCCC3)c(=O)n3ccccc23)CC1
inactive: residual activity [1] 50% | residual activity [2] 93% | residual activity [3] 88% | residual activity [4] 100% | residual activity [5] 96% | inhibition [6] 24.1% | residual activity [7] 93% | inhibition [8] 16.3% | residual activity [9] 100% | residual activity [10] 76% | residual activity [11] 100% | residual activity [12] 100% | residual activity [13] 80% | residual activity [14] 100% | residual activity [15] 72% | residual activity [16] 97% | residual activity [17] 95% | inhibition [18] 23.2% | residual activity [19] 75% | residual activity [20] 77% | residual activity [21] 78% | residual activity [22] 100% | residual activity [23] 100% | residual activity [24] 82% | residual activity [25] 95% | residual activity [26] 89% | residual activity [27] 99% | residual activity [28] 95% | residual activity [29] 69% | residual activity [30] 79% | inhibition [31] -2.49% | residual activity [32] 100% | residual activity [33] 85% | residual activity [34] 98% | inhibition [35] 15.8% | residual activity [36] 76% | residual activity [37] 100% | residual activity [38] 81%
